The record followed here is ChEMBL document CHEMBL5649167, “The SUV4-20 inhibitor A-196 verifies a role for epigenetics in genomic integrity” (Nat Chem Biol, 2017).

Series [1] concerns the target Histone-lysine N-methyltransferase KMT5B (Homo sapiens, UniProt Q4FZB7). Briefly: Inhibition of recombinant human 6His-(Tev)-G-SUV420H1 (69 to 335 residues) using Biotin-tagged H4K20me1 and [3H-SAM] as substrate incubated for 2 hrs by scintillation proximity assay.
In series [2] the target is Histone-lysine N-methyltransferase KMT5C (Homo sapiens, UniProt Q86Y97). Briefly: Inhibition of human SUV420H2 using Biotin-tagged H4K20me1 and [3H-SAM] as substrate incubated for 2 hrs by scintillation proximity assay. (In general: In a scintillation proximity assay essentially only radioactivity close to the scintillant gives light.)
The subject of series [3] is B-cell. Briefly: Induction of DNA repair in mouse B cells assessed as change in ability of splenic cells to switch from IgM to IgG1 incubated for 2 days at 1 uM in the presence of LPS by flow cytometry analysis (Rvb=9.59%). Type of series: functional. The following applies: time 2 day. In general terms: A flow cytometer gives signals particle by particle.
The subject of series [4] is B-cell. Briefly: Induction of DNA repair in mouse B cells assessed as change in ability of splenic cells to switch from IgM to IgG1 at 10 uM incubated for 2 days in the presence of LPS by flow cytometry analysis (Rvb=9.59%). The following applies: time 2 day. Type of series: functional.
For series [5], the system named is B-cell. Briefly: Induction of DNA repair in mouse B cells assessed as change in ability of splenic cells to switch from IgM to IgG3 at 1 uM incubated for 4 days in the presence of LPS by flow cytometry analysis (Rvb=5.71%). Type of series: functional. The following applies: time 4 day.
Series [6] concerns B-cell. Briefly: Induction of DNA repair in mouse B cells assessed as change in ability of splenic cells to switch from IgM to IgG3 at 10 uM incubated for 4 days in the presence of LPS by flow cytometry analysis (Rvb=5.71%). In kind it is functional. The following applies: time 4 day.
For series [7], the system named is B-cell. Briefly: Induction of DNA repair in mouse B cells assessed as change in ability of splenic cells to switch from IgM to IgE at 1 uM incubated for 3 days in the presence of LPS plus IL-4 by flow cytometry analysis (Rvb=1.97%). In kind it is functional. The following applies: time 3 day.
For series [8], the system named is B-cell. Briefly: Induction of DNA repair in mouse B cells assessed as change in ability of splenic cells to switch from IgM to IgE at 10 uM incubated for 3 days in the presence of LPS plus IL-4 by flow cytometry analysis (Rvb=1.97%). Type of series: functional. The following applies: time 3 day.
The target of series [9] is L-type calcium channel (verapamil binding site) (Homo sapiens, UniProt O60840+Q01668+Q13698+Q13936). Briefly: Inhibition of human L-type calcium channel verapamil binding site at 10 uM relative to control. In kind it is protein assay.
Series [10] concerns the target KV channel (voltage-gated potassium channel) (Homo sapiens, UniProt O43525+O43526+O95259+P16389+P17658+P22001+P22459+P22460+P48547+P51787+P56696+Q03721+Q09470+Q12809+Q14003+Q14721+Q16322+Q6PIU1+Q8NCM2+Q8TAE7+Q8TDN1+Q8TDN2+Q92953+Q96KK3+Q96L42+Q96PR1+Q96RP8+Q9BQ31+Q9H252+Q9H3M0+Q9NR82+Q9NS40+Q9NSA2+Q9NZV8+Q9UIX4+Q9UJ96+Q9UK17+Q9ULD8+Q9ULS6+Q9UQ05). Briefly: Inhibition of human KV channel at 10 uM relative to control. In kind it is protein assay.

A further series concerns the target T1, Adenosine receptor A1 (Homo sapiens, UniProt P30542).
T1 sequence (P30542 whole entry): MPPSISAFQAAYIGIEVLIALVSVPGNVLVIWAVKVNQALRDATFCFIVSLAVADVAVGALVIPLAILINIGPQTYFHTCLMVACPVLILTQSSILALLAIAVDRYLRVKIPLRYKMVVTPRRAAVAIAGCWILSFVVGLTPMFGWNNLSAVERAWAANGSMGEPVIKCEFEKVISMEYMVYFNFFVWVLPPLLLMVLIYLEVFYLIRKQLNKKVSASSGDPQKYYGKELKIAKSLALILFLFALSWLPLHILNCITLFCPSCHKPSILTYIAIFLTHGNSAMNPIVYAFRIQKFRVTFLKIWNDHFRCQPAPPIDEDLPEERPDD
Briefly: Inhibition of human Adenosine receptor A1 assessed as inhibition constant.

In another series the target is Adenosine receptor A2a (Homo sapiens, UniProt P29274). Briefly: Inhibition of human Adenosine receptor A2a assessed as inhibition constant.
The target in another series is T2, Adenosine receptor A3 (Homo sapiens, UniProt P0DMS8).
T2 sequence (P0DMS8 whole entry): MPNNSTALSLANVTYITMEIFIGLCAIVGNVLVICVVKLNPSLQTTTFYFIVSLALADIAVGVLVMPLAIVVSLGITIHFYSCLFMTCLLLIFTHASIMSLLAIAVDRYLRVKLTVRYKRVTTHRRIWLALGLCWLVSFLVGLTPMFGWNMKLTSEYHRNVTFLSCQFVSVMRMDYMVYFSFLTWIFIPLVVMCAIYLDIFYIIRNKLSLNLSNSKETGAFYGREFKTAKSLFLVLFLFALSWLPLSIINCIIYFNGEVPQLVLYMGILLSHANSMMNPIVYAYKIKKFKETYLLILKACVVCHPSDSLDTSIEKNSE
Briefly: Inhibition of human Adenosine receptor A3 assessed as inhibition constant.

Series [11] has as its target Sodium-dependent serotonin transporter (Homo sapiens, UniProt P31645). Briefly: Inhibition of human 5-HT transporter assessed as inhibition constant.
Series [12] deals with T3, 5-hydroxytryptamine receptor 1A (Homo sapiens, UniProt P08908).
T3 sequence (P08908 whole entry): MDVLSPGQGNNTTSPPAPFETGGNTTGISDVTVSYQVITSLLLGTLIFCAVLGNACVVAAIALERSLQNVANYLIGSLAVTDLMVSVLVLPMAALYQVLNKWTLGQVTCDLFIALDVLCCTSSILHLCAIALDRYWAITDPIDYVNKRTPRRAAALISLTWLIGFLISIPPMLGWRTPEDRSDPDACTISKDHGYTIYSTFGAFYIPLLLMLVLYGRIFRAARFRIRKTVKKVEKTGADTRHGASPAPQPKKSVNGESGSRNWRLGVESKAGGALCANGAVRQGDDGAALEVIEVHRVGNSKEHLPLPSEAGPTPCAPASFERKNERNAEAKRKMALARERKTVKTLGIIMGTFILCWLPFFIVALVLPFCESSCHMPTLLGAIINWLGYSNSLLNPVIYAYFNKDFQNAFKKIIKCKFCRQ
Briefly: Inhibition of human 5-HT1A assessed as inhibition constant.

The target in series [13] is T4, 5-hydroxytryptamine receptor 2A (Homo sapiens, UniProt P28223). Briefly: Inhibition of human 5-HT2A assessed as inhibition constant.
Series [14] can be described thus: Inhibition of human 5-HT3 receptor expressed in HEK293T cells at 10 uM relative to control. The following applies: HEK-293T.
Series [15] deals with T4, 5-hydroxytryptamine receptor 2A. Briefly: Inhibition of human 5-HT2A receptor expressed in HEK293T cells assessed as inhibition constant. Type of series: cell-based.
Series [16] concerns the target Kappa-type opioid receptor (Homo sapiens, UniProt P41145). Briefly: Inhibition of human kappa opioid receptor expressed in stable HEK cells assessed as inhibition constant. In kind it is cell-based.
Series [17] in a line: Inhibition of Rat GABAA assessed as inhibition constant in the presence of PBR.

Each structure is given as a SMILES string. Some results are limits rather than exact numbers.

T4 sequence (P28223 whole entry): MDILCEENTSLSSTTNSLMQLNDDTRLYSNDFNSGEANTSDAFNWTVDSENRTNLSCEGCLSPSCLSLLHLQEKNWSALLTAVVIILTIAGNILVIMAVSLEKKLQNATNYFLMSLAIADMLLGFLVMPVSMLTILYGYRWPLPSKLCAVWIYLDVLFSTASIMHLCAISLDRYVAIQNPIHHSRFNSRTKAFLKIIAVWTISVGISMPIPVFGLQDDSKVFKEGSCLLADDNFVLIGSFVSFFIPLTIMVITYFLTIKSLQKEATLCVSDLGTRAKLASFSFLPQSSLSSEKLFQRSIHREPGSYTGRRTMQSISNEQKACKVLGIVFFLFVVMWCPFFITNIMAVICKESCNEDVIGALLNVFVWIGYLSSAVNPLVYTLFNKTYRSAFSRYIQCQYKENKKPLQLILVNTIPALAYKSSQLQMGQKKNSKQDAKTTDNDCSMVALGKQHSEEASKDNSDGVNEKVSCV
Chain of Histone-lysine N-methyltransferase KMT5C (Q86Y97 whole entry): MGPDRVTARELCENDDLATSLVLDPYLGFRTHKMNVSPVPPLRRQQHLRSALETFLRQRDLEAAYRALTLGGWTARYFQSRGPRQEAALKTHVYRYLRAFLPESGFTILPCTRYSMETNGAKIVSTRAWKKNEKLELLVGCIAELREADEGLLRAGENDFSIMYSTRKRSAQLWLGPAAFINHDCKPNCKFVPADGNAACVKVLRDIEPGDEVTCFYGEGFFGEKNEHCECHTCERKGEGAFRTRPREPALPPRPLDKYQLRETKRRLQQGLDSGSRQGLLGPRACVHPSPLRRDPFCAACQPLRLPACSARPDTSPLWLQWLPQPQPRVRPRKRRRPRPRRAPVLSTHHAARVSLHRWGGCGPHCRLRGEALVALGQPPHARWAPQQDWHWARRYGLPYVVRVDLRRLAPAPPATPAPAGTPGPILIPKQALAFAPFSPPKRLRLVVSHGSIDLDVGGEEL
Chain of Kappa-type opioid receptor (P41145 whole entry): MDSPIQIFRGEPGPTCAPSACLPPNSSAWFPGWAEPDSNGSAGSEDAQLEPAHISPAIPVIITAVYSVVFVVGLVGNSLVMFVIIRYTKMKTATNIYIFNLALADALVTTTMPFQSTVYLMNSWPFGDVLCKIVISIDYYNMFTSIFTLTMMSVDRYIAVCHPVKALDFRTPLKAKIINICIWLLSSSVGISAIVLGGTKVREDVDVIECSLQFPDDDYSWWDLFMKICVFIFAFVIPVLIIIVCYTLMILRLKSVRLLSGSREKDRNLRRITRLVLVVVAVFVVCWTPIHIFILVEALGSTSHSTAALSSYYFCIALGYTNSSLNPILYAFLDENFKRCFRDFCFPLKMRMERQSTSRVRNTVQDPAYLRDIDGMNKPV
Chain of Sodium-dependent serotonin transporter (P31645 whole entry): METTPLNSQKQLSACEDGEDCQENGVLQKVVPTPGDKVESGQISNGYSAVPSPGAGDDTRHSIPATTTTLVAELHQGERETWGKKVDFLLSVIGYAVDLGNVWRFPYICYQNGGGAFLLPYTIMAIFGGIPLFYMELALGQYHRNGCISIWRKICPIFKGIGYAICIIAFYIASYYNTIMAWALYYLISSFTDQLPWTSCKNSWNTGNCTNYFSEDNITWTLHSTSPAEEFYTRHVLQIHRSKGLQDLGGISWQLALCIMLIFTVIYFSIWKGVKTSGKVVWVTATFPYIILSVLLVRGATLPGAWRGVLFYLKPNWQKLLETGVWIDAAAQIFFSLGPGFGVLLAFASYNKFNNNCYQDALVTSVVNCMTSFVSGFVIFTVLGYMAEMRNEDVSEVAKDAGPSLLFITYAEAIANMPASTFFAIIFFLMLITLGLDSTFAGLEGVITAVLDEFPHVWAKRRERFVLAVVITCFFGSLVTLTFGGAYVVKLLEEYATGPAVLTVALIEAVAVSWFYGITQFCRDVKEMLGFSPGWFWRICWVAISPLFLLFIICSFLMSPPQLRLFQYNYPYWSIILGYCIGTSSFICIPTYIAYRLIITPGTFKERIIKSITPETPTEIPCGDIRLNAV
Chain of Adenosine receptor A2a (P29274 whole entry): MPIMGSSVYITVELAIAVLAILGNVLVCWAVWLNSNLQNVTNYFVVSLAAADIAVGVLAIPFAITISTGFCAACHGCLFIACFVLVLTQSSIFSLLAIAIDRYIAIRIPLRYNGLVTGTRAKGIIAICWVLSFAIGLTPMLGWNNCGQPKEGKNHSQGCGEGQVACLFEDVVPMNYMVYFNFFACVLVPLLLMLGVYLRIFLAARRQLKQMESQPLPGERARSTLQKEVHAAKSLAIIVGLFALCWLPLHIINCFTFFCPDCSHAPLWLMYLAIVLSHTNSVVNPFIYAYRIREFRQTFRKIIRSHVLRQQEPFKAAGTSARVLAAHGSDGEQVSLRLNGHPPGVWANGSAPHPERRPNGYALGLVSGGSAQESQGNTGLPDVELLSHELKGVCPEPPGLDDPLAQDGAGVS
Chain of Histone-lysine N-methyltransferase KMT5B (Q4FZB7 whole entry, the tested form may be a part): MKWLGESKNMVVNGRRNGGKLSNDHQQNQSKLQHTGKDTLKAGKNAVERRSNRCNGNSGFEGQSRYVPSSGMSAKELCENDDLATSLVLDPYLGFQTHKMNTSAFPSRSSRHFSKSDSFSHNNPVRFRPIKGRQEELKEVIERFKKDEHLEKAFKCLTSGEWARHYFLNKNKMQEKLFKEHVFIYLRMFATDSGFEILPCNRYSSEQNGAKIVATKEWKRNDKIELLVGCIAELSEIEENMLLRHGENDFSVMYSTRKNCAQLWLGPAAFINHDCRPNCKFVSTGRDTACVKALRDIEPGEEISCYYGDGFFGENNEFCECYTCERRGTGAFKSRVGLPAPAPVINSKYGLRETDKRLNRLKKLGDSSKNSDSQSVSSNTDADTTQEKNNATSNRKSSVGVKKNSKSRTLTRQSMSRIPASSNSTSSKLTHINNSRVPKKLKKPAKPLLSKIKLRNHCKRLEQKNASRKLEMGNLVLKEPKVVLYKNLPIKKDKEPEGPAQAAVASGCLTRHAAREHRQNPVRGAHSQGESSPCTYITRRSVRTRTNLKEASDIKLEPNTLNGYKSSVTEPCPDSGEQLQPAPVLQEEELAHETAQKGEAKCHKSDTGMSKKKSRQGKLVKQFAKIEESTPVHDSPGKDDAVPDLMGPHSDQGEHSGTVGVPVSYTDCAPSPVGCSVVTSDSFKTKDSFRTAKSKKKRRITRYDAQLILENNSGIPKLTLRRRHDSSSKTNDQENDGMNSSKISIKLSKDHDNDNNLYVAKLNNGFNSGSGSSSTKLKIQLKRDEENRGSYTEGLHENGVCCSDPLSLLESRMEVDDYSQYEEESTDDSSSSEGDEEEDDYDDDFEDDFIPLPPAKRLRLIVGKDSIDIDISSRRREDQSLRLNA

On to `O=C(c1nnc(NC2CCCC2)c2cc(Cl)c(Cl)cc12)N1CCC(O)CC1`, for which the IC50 in [1] and in series [2] was above 10 µM each time. Further, the Activity with B-cell [3] turned out to be 10.7%; in the series with B-cell [4] it was 10.6%; with B-cell [5], 5.55%; with B-cell [6] it was 5.11%; in the series with B-cell [7], 2.45%; in the series on B-cell [8], 1.94%. In addition, the inhibition at 10 µM in series [9] is 4%; in series [10], -5%; in series [14] it was -5%. Moreover, the inhibition constant (Ki) on Adenosine receptor A1 was 3.1 µM; on Adenosine receptor A2a, 20 µM; on Adenosine receptor A3, 13 µM; in series [11], 3.9 µM; in series [12], above 10 µM; in series [13] it was 13 µM. Further, the inhibition constant (Ki) in series [15] was above 10 µM; in series [16], 2.7 µM; in series [17] it was 1.1 µM.

For orientation: IC50 means the concentration that inhibits the measured activity by half. The term inhibition denotes the change of the read-out against control, counted positive when it falls. Broadly, the Ki is the dissociation constant of the complex between target and ligand, obtained from inhibition or displacement.
